Measured values: patent publication US20260240820A1, “METHOD FOR CONTROLLING MEMBRANE POTENTIAL-DEPENDENT ION CHANNEL THROUGH TYPE I TASTE RECEPTORS (T1RS)” (ION CHAT RESEARCH CORPORATE, priority 2022, published 2026)
Entries after “also recorded” stand apart in the source; their conditions may differ. Like-named read-outs stand apart in the source and are kept apart here.

How the values were obtained:
VGSC = assay: Patch-clamp recording of VGSC current, cell type not specified or several cell types (summary statements); assay type: cell-based, human
SH-SY5Y cells [1] = assay: Action potentials of differentiated SH-SY5Y cells (current clamp, NanoCharge method); assay type: cell-based, human; settings: pH6; current clamp
Procedure: Next, using the current-clamp mode, we applied current stimulation and recorded action potentials from differentiated SH-SY5Y cells (FIG. 5, from the lower to the upper part of the figure, rectangular wave current stimulation was applied. The current strengths were 6, 8, 10, and 12 pA from the bottom). Before the application of Aβ25-35 peptide, action potentials were not induced at stimulation currents of 6 pA and 8 pA, but action potentials were recorded at stronger stimulation currents (10 pA and 12 pA).
By using magnetic conductive nanoparticles as intracellular electrodes for measuring the neuronal action potentials of differentiated SH-SY5Y cells, and combining this with a capacitive potential detection device to measure changes in intracellular potentials, the spontaneous action potentials of these cells were measured. Specifically, 6.25 nM of the T1R3 agonist Aβ25-35 peptide was added to 400 μl of SH-SY5Y cell culture medium, and the spontaneous action potentials before and after the addition of Aβ25-35 peptide were measured to observe the changes.
This membrane potential recording method focuses on the magnetic conductive nanoparticles penetrating the cell membrane, the cover glass on which the cells are seeded, and the electrode placed below the cover glass forming a capacitor. The charge (Q) charged to this capacitor is recorded as the membrane potential in terms of charge rather than voltage changes. Since the charge (Q) is obtained from Q=CV, where C is the capacitance and V is the potential, the charge changes measured here are influenced by the capacitor (C) (FIG. 43).

[2] = test system: VGSC of SH-SY5Y cells (Nav1.7, Nav1.2, Nav1.3); assay: Patch-clamp recording of VGSC current in differentiated SH-SY5Y cells; assay type: cell-based, human; settings: 5 μM
Description: Furthermore, the inventors focused on the relationship between taste receptors, particularly the sweet or umami receptors containing the T1R3 subunit, which are widely expressed in the brain and nervous system, including the hippocampus and cortex. They used human neuroblastoma cells (SH-SY5Y) that functionally express Nav1.2, Nav1.3, and Nav1.7 (as reported in non-patent literature 8), as well as HEK cells stably expressing Nav1.5 (with endogenous expression of T1R1, T1R2, and T1R3). They observed the effects of taste stimuli on sodium channel activation. By reducing the expression of T1R1 and T1R3 genes using silencing vectors, they confirmed that the effects on sodium channel currents induced by taste stimuli act through taste receptor GPCRs.
The SH-SY5Y cell culture medium was prepared by mixing DMEM (Sigma-Aldrich) and F-12 (Sigma-Aldrich) in equal proportions. To induce neuronal-like differentiation, the medium contained 1% FBS (BioWest), 5% 40 mM L-Glutamine (Fuji Film), and 1% MEM non-essential amino acids (Wako Pure Chemical Industries). During differentiation, SH-SY5Y cells were cultured for at least 5 days with the addition of 10 μM/ml retinoic acid (Fuji Film). In this document, “SH-SY5Y cells” refer to the SH-SY5Y cell line differentiated into neuronal-like cells.

HEK Nav1.5 cells = assay: GFP-Tubulin / GFP-Actin cytoskeleton observation in HEK Nav1.5 cells; assay type: cell-based, human
Description: To observe the impact of cinacalcet and Aβ1-42 peptide on microfilament (actin) fiber structures, we labeled cells with GFP-Actin (FIG. 34). […] This experimental approach, using GFP-Tubulin, GFP-Actin, or other fluorescent proteins to label microtubules and microfilaments, can be used to screen compounds that regulate the activity of ion channels and neuronal function-controlling proteins. Additionally, simultaneous labeling of tubulin and actin can be achieved using fluorescent antibodies or phalloidin after cell fixation.

[3] = test system: voltage-dependent potassium channel current of SH-SY5Y cells; assay: Voltage clamp recording of outward potassium current in SH-SY5Y cells; assay type: cell-based, human; settings: 5 μM
Description: The inward current represents the transient peak observed immediately after stimulation, while the outward current measures the average value during the last 50 ms of rectangular pulse stimulation.

[4] = when used for treatment of hypercalcemia; cited from earlier work
Nav1.5 = assay: Patch-clamp (voltage clamp) recording of VGSC current in HEK cells stably expressing Nav1.5; settings: for Effect on VGSC current enhanced by Aβ42/40 (AD-D): applied after Aβ42/40 (AD-D)
[5] = test system: Nav1.5 in T1R3-silenced HEK cells; assay: VGSC current in HEK Nav1.5 cells with silenced T1R3; assay type: cell-based, human; settings: for Effect on VGSC current: 20 μM (b565)
Method in brief: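 VGSC currents were recorded in HEK-Nav1.5 cells with T1R3 knocked down by a miRNA expression vector, stimulated every 8 s. The effect of Aβ25-35 peptide was compared with control HEK-Nav1.5 cells.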

[6] = test system: endogenous T1R GPCR of HEK cells; assay: Intracellular calcium (Cal-520) in HEK cells stably expressing Nav1.1 with endogenous T1R GPCR; assay type: cell-based, human; settings: 10 nM then 20 nM for Aβ1-40 and Aβ1-42
Procedure: Specifically, experiments were conducted as follows using HEK cells stably expressing Nav1.1 (FIG. 45). The calcium-sensitive reagent (Cal-520, AAT Bioquest) was incubated at 37° C. for 60 minutes, followed by incubation at room temperature for 30 minutes, and then changes in intracellular calcium were measured using a fluorescence microscope. […] Initially, 10 nM, followed by 20 nM of Aβ1-40 was applied after 5 minutes (arrow). […] A total of 6 cell groups from two independent experiments were measured, averaged by the maximum fluorescence response value, and the mean and standard error (stderr) were calculated and plotted. […] 10 nM, followed by 20 nM of Aβ1-42 was applied after 5 minutes (arrow). […] A total of 12 cell groups from two independent experiments were measured, averaged by the minimum fluorescence response value, and the mean and standard error (stderr) were calculated and plotted. Similar to the experimental results using the patch-clamp method when Aβ peptide was applied to Nav1.5, it was confirmed from intracellular calcium measurements that the effects of Aβ1-40 and Aβ1-42 were different.

[7] = test system: T1R3 inherent in HEK cells; assay: Impedance of HEK Nav1.5 cell sheet; assay type: cell-based, human
Procedure: Specifically, cells were cultured on a conductive glass (FTO glass, thickness 2.2 mm) electrode plate to form a sheet, and the change in impedance value of the cell sheet was measured by applying current stimulation between the conductive glass covered with cells and the extracellular solution. The measurement experiment was conducted using the voltage-clamp method. A voltage pulse of 1 mV (1 Hz, 220 ms width) was applied between the silver chloride electrode placed in the extracellular solution and the electrode plate, and the change caused by the amyloid peptide was measured as a change in current (I).
By measuring the current response (I) occurring there, the resistance ® of the entire cell sheet to the applied voltage (1 mV) can be calculated from Ohm's law (V=IR>R=V/I). As shown in (FIG. 46), it was confirmed that the T1R3 antibody inhibits the effect of Aβ1-40 peptide.

HUEhT-1 cells = assay: Cell morphology observation, HUEhT-1 umbilical vein endothelial cells; assay type: cell-based, human; settings: Aβ1-40 at 12.5 nM
Description: (§1) In a previous implementation example (FIG. 54), it was shown that Aβ peptides and artificial sweeteners cause depolymerization of the cytoskeleton. […] To easily compare and confirm the morphological changes before and after the application of Aβ1-40, the areas of interest were circled with dashed lines. Observations were made using bright-field microscopy. Images were captured with a camera (UI-3880CP-M) from IDS mounted on the microscope, and the images were imported to a PC using the software that came with the camera. Further image processing was done using ImageJ (Rasband, 1997-2018).

Nav1.1 = assay: Patch-clamp recording of VGSC current in HEK (Nav1.1) cells; assay type: cell-based, human
Description: (§2) The cells used in the previous (18-1) experiment were cardiac-type VGSC cells. In this experiment, HEK (Nav1.1) and HEK (Nav1.6) cells, which are considered neuronal VGSC cells, were created. The effects of four peptides—Aβ25-35, Aβ1-38, Aβ1-40, and Aβ1-42—were examined using the same experimental protocol as in (18-1).

Nav1.6 = assay: Patch-clamp recording of VGSC current in HEK (Nav1.6) cells; assay type: cell-based, human
Description: as §2, with “(18-1). […]” for “(18-1).”

HEK cells = assay: Cell morphology observation (bright-field), HEK cells; assay type: cell-based, human
Description: as §1
The solution (HHBS*) was adjusted to achieve the final concentration values shown in Table 11 for Aβ42/40, and the changes in cell morphology were observed. Indicators included cell body contraction, extension, or the presence of lamellipodia ruffling around the cell periphery.

VGSC of NG108-15 cells = assay: Whole-cell patch-clamp of VGSC current in differentiated NG108-15 cells; assay type: cell-based, mouse/rat; settings: subsequent application
Description: Specifically, we used mouse/rat hybridoma cells NG108-15 differentiated into neuronal-like cells using forskolin and low-concentration FBS treatment, along with human-derived cells expressing human Nav1.5. We recorded VGSC currents using the whole-cell patch-clamp method and observed the effects of Aβ peptides (FIG. 58A-1, B). The term “Aβ peptides” here refers to a mixture of Aβ40 and Aβ42. We used two types of mixtures similar to those used in the experiments on cell morphology and lamellipodia dynamics. One mixture corresponds to the Aβ42/40 ratio observed in cerebrospinal fluid from healthy individuals (NDC: non-demented control), and the other corresponds to the ratio observed in cerebrospinal fluid from Alzheimer's disease patients with cognitive impairment (AD-D).

SH-SY5Y cells [8] = assay: Cell morphology observation, SH-SY5Y cells; assay type: cell-based, human; settings: neuron-like differentiated SH-SY5Y cells

C[C@@H](NCCCc1cccc(C(F)(F)F)c1)c1cccc2ccccc12 [Cinacalcet]
Effects on VGSCs (VGSC): Inhibition of VGSCs
Effect on VGSC activity (VGSC; 5 μM): completely inhibits VGSC activity
Inhibitory effect on VGSC when tubulin polymerization is inhibited by Colchicine (VGSC; Colchicine treated cells): still inhibited VGSC currents
Inhibitory effect on VGSC when actin polymerization is inhibited by Cytochalasin D (VGSC; Cytochalasin D treated cells): inhibited by cytochalasin D treatment
Required concentration for VGSC inhibition (VGSC; HEK Nav1.5 and SH-SY5Y): 5 µM
Effects on VGSCs (VGSC; listed as cinacalcet): inhibited human VGSC
Effect on VGSC-dependent action potentials under acidic conditions (SH-SY5Y cells [1]): inhibited VGSC-dependent action potentials
Effect on inward VGSC current [2]: inhibited
Effect on inward VGSC current ([2]; listed as cinacalcet): complete inhibition of both currents
Microfilament structure (GFP-Actin) (HEK Nav1.5 cells): condensed GFP-Actin structures
Effect on outward potassium current [3]: inhibited
Effect on outward potassium current ([3]; listed as cinacalcet): complete inhibition of both currents
Plasma concentration [4]: 50 nM
Effect on VGSC (Na+) current under acidic conditions (Nav1.5; 5 μM, pH 6): gradually inhibited; also recorded: exhibited VGSC inhibition
Effect on VGSC currents (Nav1.5; 20 μM, control HEK Nav1.5 cells): completely inhibits VGSC currents
Effect on leak (baseline) current (Nav1.5; when VGSC inhibition nearly complete): reduced leak currents
Effect on VGSC current [5]: no change in VGSC current was observed
Effect on VGSC current ([5]; listed as cinacalcet): no observable effect
Effect on VGSC in T1R3-silenced cells ([5]; listed as cinacalcet): no VGSC inhibitory effect was observed; also recorded: T1R3 silencing nullifies ab25-35's

Aβ1-40: amyloid β peptide, Sequence No. 3
Change in intracellular calcium [6]: increased intracellular calcium levels; also recorded: continued to slowly increase
Change of impedance of cell sheet [7]: decrease in impedance
Change in cell morphology (HUEhT-1 cells): a decrease in cell area/volume
Change in cell morphology (HUEhT-1 cells; listed as Aβ40): significant cell body contraction (atrophy)
Effect on VGSC current (Nav1.1): VGSC enhancement
Effect on VGSC current (Nav1.6): VGSC enhancement
Change in cell morphology (HEK cells; Aβ1-40 at 12.5 nM): a decrease in cell area/volume
Effect on VGSC current amplitude (Nav1.5): reduced VGSC currents for both prepulse potentials
Shift of steady-state inactivation (S-S) curve of VGSC (Nav1.5): to the left; also recorded: more towards the hyperpolarizing direction
Effect on VGSC in T1R3-silenced cells [5]: is lost

NCCC(=O)O [β-alanine]
Effect on VGSC current after Aβ42/40 (AD-D) (VGSC of NG108-15 cells): did not cause any further changes
Lamellipodia activity (SH-SY5Y cells [8]): enhances lamellipodia activity
Effect on cell motility (HEK cells; 5 μM): promotes cell motility
Effect on cells contracted and inactive due to Aβ AD (HEK cells; HEK cells, data not shown): induces activity in cells
Effect on VGSC current enhanced by Aβ42/40 (AD-D) (Nav1.5): reversed; also recorded: reverse the enhancement of VGSC current; also recorded: nearly returned to the control level
Effect on VGSC current enhanced by Aβ42/40 (AD-D) (Nav1.5; listed as D-alanine): nearly restoring it to control levels
